We go through 15 compounds from patent US9969767B2, “Oxolupene derivatives” (priority 2014, dated 2018).

A word on the pEC50: it is the negative decadic logarithm of the EC50, by convention in mol/L.

pEC50: −log10 of the molar value.

The test deals with recombinant NL4-3 virus (Renilla luciferase in nef, Gag P373S). In words: HIV Cell Culture Assay (luciferase reporter virus in MT-2 cells). The following applies: NL43. The format is cell-based. As to the method: MT-2 cells and 293T cells were obtained from the NIH AIDS Research and Reference Reagent Program. MT-2 cells were propagated in RPMI 1640 media supplemented with 10% heat inactivated fetal bovine serum, […]. The 293T cells were propagated in DMEM media supplemented with 10% heat inactivated fetal bovine serum (FBS), 100 units/mL penicillin G and 100 μg/mL streptomycin. The proviral DNA clone of NL4-3 was obtained from the NIH AIDS Research and Reference Reagent Program. A recombinant NL4-3 virus, in which a section of the nef gene from NL4-3 was replaced with the Renilla luciferase gene, was used as a reference virus. In addition, residue Gag P373 was converted to P373S. Briefly, the recombinant virus was prepared by transfection of the altered proviral clone of NL4-3. Transfections were performed in 293T cells using LipofectAMINE PLUS from Invitrogen (Carlsbad, Calif.), according to manufacturer's instruction. The virus was titered in MT-2 cells using luciferase enzyme activity as a marker. Luciferase was quantitated using the Dual Luciferase kit from Promega (Madison, Wis.), with modifications to the manufacturer's protocol. The diluted Passive Lysis solution was pre-mixed with the re-suspended Luciferase Assay Reagent and the re-suspended Stop & Glo Substrate (2:1:1 ratio). Fifty (50) μL of the mixture was added to each aspirated well on assay plates and luciferase activity was measured immediately on a Wallac TriLux (Perkin-Elmer). Antiviral activities of inhibitors toward the recombinant virus were quantified by measuring luciferase activity in cells infected for 4-5 days with NLRluc recombinants in the presence serial dilutions of the inhibitor.
A general note: A reporter such as luciferase makes a cellular process visible.

On to `CC(C)C1=C2[C@H]3CC[C@@H]4[C@@]5(C)CC=C(C6=CC[C@](CF)(C(=O)O)CC6)C(C)(C)[C@@H]5CC[C@@]4(C)[C@]3(C)CC[C@@]2(CNCCCN2CCS(=O)(=O)CC2)CC1=O` [Example 13], for which the pEC50 was above 7.00.

For the compound `CC(C)C1=C2[C@H]3CC[C@@H]4[C@@]5(C)CC=C(c6ccc(C(=O)O)cc6)C(C)(C)[C@@H]5CC[C@@]4(C)[C@]3(C)CC[C@@]2(C(=O)O)CC1=O` [Example 3, (3aR,5aR,5bR,7aR,11aS,11bR,13aS)-9-(4-carboxyphenyl)-1-isopropyl-5a,5b,8,8,11a-pentamethyl-2-oxo-3,3a,4,5,5a,5b,6,7,7a,8,11,11a,11b,12,13,13a-hexadecahydro-2H-cyclopenta[a]chrysene-3a-carboxylic acid], the negative-log EC50 (pEC50) is above 7.00.

As for `CC(C)C1=C2[C@H]3CC[C@@H]4[C@@]5(C)CC=C(C6=CC[C@](CF)(C(=O)O)CC6)C(C)(C)[C@@H]5CC[C@@]4(C)[C@]3(C)CC[C@@]2(NCCN2CCC(S(C)(=O)=O)CC2)CC1=O` [Example 11, (S)-1-(fluoromethyl)-4-((3aR,5aR,5bR,7aR,11aS,11bR,13aS)-1-isopropyl-5a,5b,8,8,11a-pentamethyl-3a-((2-(4-(methylsulfonyl)piperidin-1-yl)ethyl)amino)-2-oxo-3,3a,4,5,5a,5b,6,7,7a,8,11,11a,11b,12,13,13a-hexadecahydro-2H-cyclopenta[a]chrysen-9-yl)cyclohex-3-enecarboxylic acid], the negative logarithm of the EC50 (pEC50) was above 7.00.

On to `CC(C)C1=C2[C@H]3CC[C@@H]4[C@@]5(C)CC=C(C6=CCC(C(=O)O)CC6)C(C)(C)[C@@H]5CC[C@@]4(C)[C@]3(C)CC[C@@]2(C(=O)O)CC1=O` (stereo partly drawn) [Example 4, (3aR,5aR,5bR,7aR,11aS,11bR,13aS)-9-(4-carboxycyclohex-1-en-1-yl)-1-isopropyl-5a,5b,8,8,11a-pentamethyl-2-oxo-3,3a,4,5,5a,5b,6,7,7a,8,11,11a,11b,12,13,13a-hexadecahydro-2H-cyclopenta[a]chrysene-3a-carboxylic acid], for which the pEC50 was above 7.00.

With `CC(C)C1=C2[C@H]3CC[C@@H]4[C@@]5(C)CC=C(C6=CCC(C(=O)O)CC6)C(C)(C)[C@@H]5CC[C@@]4(C)[C@]3(C)CC[C@@]2(C(=O)NCCN2CCOCC2)CC1=O` (stereo partly drawn) [Example 1, 4-((3aR,5aR,5bR,7aR,11aS,11bR,13aS)-1-isopropyl-5a,5b,8,8,11a-pentamethyl-3a-((2-morpholinoethyl)carbamoyl)-2-oxo-3,3a,4,5,5a,5b,6,7,7a,8,11,11a,11b,12,13,13a-hexadecahydro-2H-cyclopenta[a]chrysen-9-yl)cyclohex-3-enecarboxylic acid], the pEC50 is 8.71.

With `CC(C)C1=C2[C@H]3CC[C@@H]4[C@@]5(C)CC=C(C6=CCC(C(=O)O)CC6)C(C)(C)[C@@H]5CC[C@@]4(C)[C@]3(C)CC[C@@]2(N)CC1=O` (stereo partly drawn) [Example 7, 4-((3aR,5aR,5bR,7aR,11aS,11bR,13aS)-3a-amino-1-isopropyl-5a,5b,8,8,11a-pentamethyl-2-oxo-3,3a,4,5,5a,5b,6,7,7a,8,11,11a,11b,12,13,13a-hexadecahydro-2H-cyclopenta[a]chrysen-9-yl)cyclohex-3-enecarboxylic acid], the pEC50 was 9.01.

As for `CC(C)C1=C2[C@H]3CC[C@@H]4[C@@]5(C)CC=C(c6ccc(C(=O)O)cc6)C(C)(C)[C@@H]5CC[C@@]4(C)[C@]3(C)CC[C@@]2(C(O)CNCCN(C)C)CC1=O` (stereo partly drawn) [Example 14, 4-((3aR,5aR,5bR,7aR,11aS,11bR,13aS)-3a-(2-((2-(dimethylamino)ethyl)amino)-1-hydroxyethyl)-1-isopropyl-5a,5b,8,8,11a-pentamethyl-2-oxo-3,3a,4,5,5a,5b,6,7,7a,8,11,11a,11b,12,13,13a-hexadecahydro-2H-cyclopenta[a]chrysen-9-yl)benzoic acid], the pEC50 is 8.27.

Regarding `CC(C)C1=C2[C@H]3CC[C@@H]4[C@@]5(C)CC=C(C6=CC[C@](CF)(C(=O)O)CC6)C(C)(C)[C@@H]5CC[C@@]4(C)[C@]3(C)CC[C@@]2(N)CC1=O` [Example 8, (S)-4-((3aR,5aR,5bR,7aR,11aS,11bR,13aS)-3a-amino-1-isopropyl-5a,5b,8,8,11a-pentamethyl-2-oxo-3,3a,4,5,5a,5b,6,7,7a,8,11,11a,11b,12,13,13a-hexadecahydro-2H-cyclopenta[a]chrysen-9-yl)-1-(fluoromethyl)cyclohex-3-enecarboxylic acid], the pEC50 was above 7.00.

For `CC(C)C1=C2[C@H]3CC[C@@H]4[C@@]5(C)CC=C(C6=CC[C@](CF)(C(=O)O)CC6)C(C)(C)[C@@H]5CC[C@@]4(C)[C@]3(C)CC[C@@]2(N(CCN2CCS(=O)(=O)CC2)CCN2CCS(=O)(=O)CC2)CC1=O` [Example 10, (S)-4-((3aR,5aR,5bR,7aR,11aS,11bR,13aS)-3a-(bis(2-(1,1-dioxidothiomorpholino)ethyl)amino)-1-isopropyl-5a,5b,8,8,11a-pentamethyl-2-oxo-3,3a,4,5,5a,5b,6,7,7a,8,11,11a,11b,12,13,13a-hexadecahydro-2H-cyclopenta[a]chrysen-9-yl)-1-(fluoromethyl)cyclohex-3-enecarboxylic acid], the pEC50 was above 7.00.

`CC(C)C1=C2[C@H]3CC[C@@H]4[C@@]5(C)CC=C(C6=CC[C@](CF)(C(=O)O)CC6)C(C)(C)[C@@H]5CC[C@@]4(C)[C@]3(C)CC[C@@]2(NCC[N+]2(CCN3CCC(S(C)(=O)=O)CC3)CCC(S(C)(=O)=O)CC2)CC1=O` (stereo partly drawn) [Example 12, 1-(2-(((3aR,5aR,5bR,7aR,11aS,11bR,13aS)-9-((S)-4-carboxy-4-(fluoromethyl)cyclohex-1-en-1-yl)-1-isopropyl-5a,5b,8,8,11a-pentamethyl-2-oxo-3,3a,4,5,5a,5b,6,7,7a,8,11,11a,11b,12,13,13a-hexadecahydro-2H-cyclopenta[a]chrysen-3a-yl)amino)ethyl)-4-(methylsulfonyl)-1-(2-(4-(methylsulfonyl)piperidin-1-yl)ethyl)piperidin-1-ium]: the pEC50 was above 7.00.

As to `CC(C)C1=C2[C@H]3CC[C@@H]4[C@@]5(C)CC=C(C6=CCC(C(=O)O)CC6)C(C)(C)[C@@H]5CC[C@@]4(C)[C@]3(C)CC[C@@]2(C(=O)NCCN2CCS(=O)(=O)CC2)CC1=O` (stereo partly drawn) [Example 2, 4-((3aR,5aR,5bR,7aR,11aS,11bR,13aS)-3a((2-(1,1-dioxidothiomorpholino)ethyl)carbamoyl)-1-isopropyl-5a,5b,8,8,11a-pentamethyl-2-oxo-3,3a,4,5,5a,5b,6,7,7a,8,11,11a,11b,12,13,13a-hexadecahydro-2H-cyclopenta[a]chrysen-9-yl)cyclohex-3-enecarboxylic acid], the pEC50 is above 7.00.

Turning to `CC(C)C1=C2[C@H]3CC[C@@H]4[C@@]5(C)CC=C(C6=CC[C@](CF)(C(=O)O)CC6)C(C)(C)[C@@H]5CC[C@@]4(C)[C@]3(C)CC[C@@]2(C(=O)O)CC1=O` [Example 5, (3aR,5aR,5bR,7aR,11aS,11bR,13aS)-9-((S)-4-carboxy-4-(fluoromethyl)cyclohex-1-en-1-yl)-1-isopropyl-5a,5b,8,8,11a-pentamethyl-2-oxo-3,3a,4,5,5a,5b,6,7,7a,8,11,11a,11b,12,13,13a-hexadecahydro-2H-cyclopenta[a]chrysene-3a-carboxylic acid], the pEC50 is above 7.00.

On to `CC(C)C1=C2[C@H]3CC[C@@H]4[C@@]5(C)CC=C(C6=CC[C@](CF)(C(=O)O)CC6)C(C)(C)[C@@H]5CC[C@@]4(C)[C@]3(C)CC[C@@]2(CNCCCN2CCS(=O)(=O)CC2)C=C1c1ccccc1` [Example 16, (S)-4-((3aR,5aR,5bR,7aR,11aS,11bR,13aS)-3a-(((3-(1,1-dioxidothiomorpholino)propyl)amino)methyl)-1-isopropyl-5a,5b,8,8,11a-pentamethyl-2-phenyl-4,5,5a,5b,6,7,7a,8,11,11a,11b,12,13,13a-tetradecahydro-3aH-cyclopenta[a]chrysen-9-yl)-1-(fluoromethyl)cyclohex-3-enecarboxylic acid], for which the negative logarithm of the EC50 (pEC50) is 8.58.

As for `CC(C)C1=C2[C@H]3CC[C@@H]4[C@@]5(C)CC=C(C6=CC[C@](CF)(C(=O)O)CC6)C(C)(C)[C@@H]5CC[C@@]4(C)[C@]3(C)CC[C@@]2(NCCN2CCS(=O)(=O)CC2)CC1=O` [Example 9, (S)-4-((3aR,5aR,5bR,7aR,11aS,11bR,13aS)-3a-((2-(1,1-dioxidothiomorpholino)ethyl)amino)-1-isopropyl-5a,5b,8,8,11a-pentamethyl-2-oxo-3,3a,4,5,5a,5b,6,7,7a,8,11,11a,11b,12,13,13a-hexadecahydro-2H-cyclopenta[a]chrysen-9-yl)-1-(fluoromethyl)cyclohex-3-enecarboxylic acid], the pEC50 is above 7.00.

With `CC(C)C1=C2[C@H]3CC[C@@H]4[C@@]5(C)CC=C(C6=CC[C@](CF)(C(=O)O)CC6)C(C)(C)[C@@H]5CC[C@@]4(C)[C@]3(C)CC[C@@]2(NCCN2CCS(=O)(=O)CC2)C=C1c1ccccc1` [Example 17, (S)-4-((3aR,5aR,5bR,7aR,11aS,11bR,13aS)-3a-((2-(1,1-dioxidothiomorpholino)ethyl)amino)-1-isopropyl-5a,5b,8,8,11a-pentamethyl-2-phenyl-4,5,5a,5b,6,7,7a,8,11,11a,11b,12,13,13a-tetradecahydro-3aH-cyclopenta[a]chrysen-9-yl)-1-(fluoromethyl)cyclohex-3-enecarboxylic acid], the negative logarithm of the EC50 (pEC50) was 6.96.
